Experimental data taken from ChEMBL document CHEMBL1149799, “Bioactive peroxides as potential therapeutic agents” (Eur J Med Chem, 2008).
Converted amounts (≈) assume the structure as drawn.

Tested on: not listed separately
Experiment: Cytotoxicity against human IGRO cells by soft agar assay
Format: functional
Settings: not given

Row | Structure (SMILES) | GI50
1 | C=C1CCCC(C)(C)C1CC[C@@]1(C)CC[C@H]([C@@H](C)C(=O)O)OO1 (stereo not given in full) [NAPAPUIN B] | 0.63 µM
2 | C=C1CCCC(C)(C)C1CC[C@]1(C)CC[C@H]([C@@H](C)C(=O)OC)OO1 (stereo not given in full) [NUAPAPUIN B] | 0.5 µM
3 | C=C1CCCC(C)(C)C1(O)CC/C(C)=C/CC[C@]1(C)CC[C@@H]([C@@H](C)C(=O)OC)OO1 (stereo not given in full) [MUQUBILIN B] | 2.42 µM
4 | C=C1CCC[C@H]2[C@](C)(CC[C@]3(C)CC[C@H]([C@@H](C)C(=O)O)OO3)[C@@H](C)CC[C@]12C [SIGMOSCEPTRELLIN A] | 0.12 µM
5 | C=C1CCCC(C)(C)C1CC[C@]1(C)CC[C@@H]([C@@H](C)C(=O)O)OO1 (stereo not given in full) [EPINUAPAPUIN B] | 1.73 µM

Tested on: BT-549
Experiment: Cytotoxicity against human BT549 cells by soft agar assay
Format: functional
Settings: not given

Row | Structure (SMILES) | GI50
6 | C=C1CCC[C@H]2[C@](C)(CC[C@]3(C)CC[C@H]([C@@H](C)C(=O)O)OO3)[C@@H](C)CC[C@]12C [SIGMOSCEPTRELLIN A] | 0.96 µM
7 | C=C1CCCC(C)(C)C1CC[C@]1(C)CC[C@@H]([C@@H](C)C(=O)O)OO1 (stereo not given in full) [EPINUAPAPUIN B] | > 5 µM

Tested on: HL-60
Experiment: Cytotoxicity against human HL60 cells by soft agar assay
Format: functional
Settings: not given

Row | Structure (SMILES) | GI50
8 | C=C1CCCC(C)(C)C1(O)CC/C(C)=C/CC[C@]1(C)CC[C@@H]([C@@H](C)C(=O)OC)OO1 (stereo not given in full) [MUQUBILIN B] | > 5 µM

Tested on: KB
Experiment: Cytotoxicity against human KB cells
Format: functional, cell-based
Settings: Homo sapiens, KB; read-out: ED50 (the source's name)

Row | Structure (SMILES) | EC50
9 | C=C(C)[C@@H](CC)CC[C@@H](C)[C@H]1CC[C@H]2[C@@H]3C=C[C@@]4(OO)C[C@@H](O)CC[C@]4(C)[C@H]3CC[C@@H]21 | 1 µg/mL (≈ 2.32 µM)
10 | C=C(C)[C@@H](CC)CC[C@@H](C)[C@H]1CC[C@@H]2[C@@H]1CC[C@H]1[C@H]2[C@@H](OO)C=C2C[C@@H](O)CC[C@@]21C | 1 µg/mL (≈ 2.32 µM)
11 | CC(C)/C(=C\COO)CC[C@@H](C)[C@H]1CC[C@@H]2[C@@H]1CC[C@H]1[C@H]2CC=C2C[C@@H](O)CC[C@@]21C | 2.2 µg/mL (≈ 5.11 µM)

Tested on: HCT-116
Experiment: Cytotoxicity against human HCT116 cells
Format: functional, cell-based
Settings: not given

Row | Structure (SMILES) | IC50
12 | CC(CCCCCCCCc1ccccc1)CC(C)C[C@]1(C)C[C@](C)(CC(=O)O)OO1 (stereo not given in full) [EPIPLAKINIC ACID H] | 0.39 µM
13 | CC(CCCCCCCCc1ccccc1)CC(C)C[C@@]1(C)C[C@](C)(CC(=O)O)OO1 (stereo not given in full) [EPIPLAKINIC ACID G] | 0.16 µM

Tested on: HT-29
Experiment: Cytotoxicity against human HT29 cells
Format: functional, cell-based
Settings: Homo sapiens, HT-29

Row | Structure (SMILES) | IC50
14 | CCCCC(CC)CC(C)C[C@]1(CC)C[C@H](CC)[C@H](CC(=O)OC)OO1 (stereo not given in full) [PLAKORITIDE Q ME] | 13 µM
15 | CCCC(CC)CC(C)C[C@]1(CC)C[C@H](CC)[C@H](CC(=O)OC)OO1 (stereo not given in full) | 12.3 µM
16 | CCCCC(CC)CC(C)C[C@]1(CC)C[C@H](CC)[C@H](CC(=O)O)OO1 (stereo not given in full) [PLAKORITIDE Q] | 3.9 µM
17 | CC/C=C/C(CC)CC(C)C[C@]1(CC)C[C@H](CC)[C@H](CC(=O)OC)OO1 (stereo not given in full) | 12.8 µM

Tested on: P388
Experiment: Cytotoxicity against mouse P388 cells
Format: functional, cell-based
Settings: Mus musculus, P388; read-out: ED50 (the source's name)

Row | Structure (SMILES) | EC50
18 | C=C(C)[C@@H](CC)CC[C@@H](C)[C@H]1CC[C@H]2[C@@H]3C=C[C@@]4(OO)C[C@@H](O)CC[C@]4(C)[C@H]3CC[C@@H]21 | 0.5 µg/mL (≈ 1.16 µM)
19 | C=C(C)[C@@H](CC)CC[C@@H](C)[C@H]1CC[C@@H]2[C@@H]1CC[C@H]1[C@H]2[C@@H](OO)C=C2C[C@@H](O)CC[C@@]21C | 0.4 µg/mL (≈ 0.929 µM)
20 | CC(C)/C(=C\COO)CC[C@@H](C)[C@H]1CC[C@@H]2[C@@H]1CC[C@H]1[C@H]2CC=C2C[C@@H](O)CC[C@@]21C | 0.5 µg/mL (≈ 1.16 µM)

Tested on: not listed separately
Experiment: Cytotoxicity against human LOX cells by soft agar assay
Format: functional
Settings: not given

Row | Structure (SMILES) | GI50
21 | C=C1CCCC(C)(C)C1CC[C@@]1(C)CC[C@H]([C@@H](C)C(=O)O)OO1 (stereo not given in full) [NAPAPUIN B] | 0.25 µM
22 | C=C1CCCC(C)(C)C1CC[C@]1(C)CC[C@H]([C@@H](C)C(=O)OC)OO1 (stereo not given in full) [NUAPAPUIN B] | 0.47 µM
23 | C=C1CCCC(C)(C)C1(O)CC/C(C)=C/CC[C@]1(C)CC[C@@H]([C@@H](C)C(=O)OC)OO1 (stereo not given in full) [MUQUBILIN B] | > 5 µM

Tested on: 786-0
Experiment: Cytotoxicity against human renal 7860 cells by soft agar assay
Format: functional
Settings: not given

Row | Structure (SMILES) | GI50
24 | C=C1CCCC(C)(C)C1(O)CC/C(C)=C/CC[C@]1(C)CC[C@@H]([C@@H](C)C(=O)OC)OO1 (stereo not given in full) [MUQUBILIN B] | > 5 µM
25 | C=C1CCCC(C)(C)C1CC[C@]1(C)CC[C@@H]([C@@H](C)C(=O)O)OO1 (stereo not given in full) [EPINUAPAPUIN B] | > 5 µM

Tested on: A549
Experiment: Cytotoxicity against human A549 cells
Format: functional, cell-based
Settings: Homo sapiens, A549

Row | Structure (SMILES) | IC50
26 | CCCCC(CC)CC(C)C[C@]1(CC)C[C@H](CC)[C@H](CC(=O)OC)OO1 (stereo not given in full) [PLAKORITIDE Q ME] | 7.8 µM
27 | CCCC(CC)CC(C)C[C@]1(CC)C[C@H](CC)[C@H](CC(=O)OC)OO1 (stereo not given in full) | 14 µM
28 | CCCCC(CC)CC(C)C[C@]1(CC)C[C@H](CC)[C@H](CC(=O)O)OO1 (stereo not given in full) [PLAKORITIDE Q] | 3.6 µM
29 | CC/C=C/C(CC)CC(C)C[C@]1(CC)C[C@H](CC)[C@H](CC(=O)OC)OO1 (stereo not given in full) | 6.8 µM

Same assay, conditions: Homo sapiens, A549; read-out: ED50 (the source's name)

Row | Structure (SMILES) | EC50
30 | C=C(C)[C@@H](CC)CC[C@@H](C)[C@H]1CC[C@H]2[C@@H]3C=C[C@@]4(OO)C[C@@H](O)CC[C@]4(C)[C@H]3CC[C@@H]21 | 1.1 µg/mL (≈ 2.55 µM)
31 | C=C(C)[C@@H](CC)CC[C@@H](C)[C@H]1CC[C@@H]2[C@@H]1CC[C@H]1[C@H]2[C@@H](OO)C=C2C[C@@H](O)CC[C@@]21C | 0.5 µg/mL (≈ 1.16 µM)
32 | CC(C)/C(=C\COO)CC[C@@H](C)[C@H]1CC[C@@H]2[C@@H]1CC[C@H]1[C@H]2CC=C2C[C@@H](O)CC[C@@]21C | 2.2 µg/mL (≈ 5.11 µM)

Tested on: HeLa
Experiment: Cytotoxicity against human HeLa cells
Format: functional, cell-based
Settings: not given

Row | Structure (SMILES) | IC50
33 | C[C@H](C(=O)O)[C@@H]1CC[C@@](C)(CC[C@@]2(C)C3=CCCC(C)(C)[C@@H]3CC[C@H]2C)OO1 [MYCAPEROXIDE H] | 0.8 µg/mL (≈ 2.04 µM)

Tested on: KM12
Experiment: Cytotoxicity against human KM12 cells by soft agar assay
Format: functional
Settings: not given

Row | Structure (SMILES) | GI50
34 | C=C1CCCC(C)(C)C1(O)CC/C(C)=C/CC[C@]1(C)CC[C@@H]([C@@H](C)C(=O)OC)OO1 (stereo not given in full) [MUQUBILIN B] | > 5 µM
35 | C=C1CCCC(C)(C)C1CC[C@]1(C)CC[C@@H]([C@@H](C)C(=O)O)OO1 (stereo not given in full) [EPINUAPAPUIN B] | > 5 µM

Tested on: not listed separately
Experiment: Cytotoxicity against human […] cells
Format: functional
Settings: read-out: ED50 (the source's name)

Row | Structure (SMILES) | EC50
36 | C=C(C)[C@@H](CC)CC[C@@H](C)[C@H]1CC[C@H]2[C@@H]3C=C[C@@]4(OO)C[C@@H](O)CC[C@]4(C)[C@H]3CC[C@@H]21 | 0.9 µg/mL (≈ 2.09 µM)
37 | C=C(C)[C@@H](CC)CC[C@@H](C)[C@H]1CC[C@@H]2[C@@H]1CC[C@H]1[C@H]2[C@@H](OO)C=C2C[C@@H](O)CC[C@@]21C | 1 µg/mL (≈ 2.32 µM)
38 | CC(C)/C(=C\COO)CC[C@@H](C)[C@H]1CC[C@@H]2[C@@H]1CC[C@H]1[C@H]2CC=C2C[C@@H](O)CC[C@@]21C | 5 µg/mL (≈ 11.6 µM)

Tested on: MDA-MB-231
Experiment: Cytotoxicity against human MDA-MB-231 cells
Format: functional, cell-based
Settings: not given

Row | Structure (SMILES) | IC50
39 | CCCCC(CC)CC(C)C[C@]1(CC)C[C@H](CC)[C@H](CC(=O)OC)OO1 (stereo not given in full) [PLAKORITIDE Q ME] | 18.4 µM
40 | CCCC(CC)CC(C)C[C@]1(CC)C[C@H](CC)[C@H](CC(=O)OC)OO1 (stereo not given in full) | 24.4 µM
41 | CCCCC(CC)CC(C)C[C@]1(CC)C[C@H](CC)[C@H](CC(=O)O)OO1 (stereo not given in full) [PLAKORITIDE Q] | 9 µM
42 | CC/C=C/C(CC)CC(C)C[C@]1(CC)C[C@H](CC)[C@H](CC(=O)OC)OO1 (stereo not given in full) | 4.1 µM

Tested on: MOLT-4
Experiment: Cytotoxicity against human MOLT4 cells by soft agar assay
Format: functional
Settings: not given

Row | Structure (SMILES) | GI50
43 | C=C1CCCC(C)(C)C1CC[C@]1(C)CC[C@H]([C@@H](C)C(=O)OC)OO1 (stereo not given in full) [NUAPAPUIN B] | > 5 µM
44 | C=C1CCCC(C)(C)C1(O)CC/C(C)=C/CC[C@]1(C)CC[C@@H]([C@@H](C)C(=O)OC)OO1 (stereo not given in full) [MUQUBILIN B] | > 5 µM
45 | C=C1CCCC(C)(C)C1CC[C@]1(C)CC[C@@H]([C@@H](C)C(=O)O)OO1 (stereo not given in full) [EPINUAPAPUIN B] | > 5 µM

Tested on: P388
Experiment: Cytotoxicity against mouse P388 cells at 0.05 ug/ml
Format: functional
Settings: not given

Row | Structure (SMILES) | inhibition at 0.05 µg/mL
46 | C/C=C/C=C/CCCCCCCCC[C@]1(OC)C=C[C@H](CC(=O)OC)OO1 | 50%
47 | C/C=C/C=C/CCCCCCC[C@]1(OC)C=C[C@H](CC(=O)OC)OO1 | 50%
48 | C/C=C/CCCCCCCCC[C@]1(OC)C=C[C@H](CC(=O)OC)OO1 | 50%

Tested on: A549
Experiment: Cytotoxicity against human A549 cells by soft agar assay
Format: functional
Settings: not given

Row | Structure (SMILES) | GI50
49 | C=C1CCCC(C)(C)C1(O)CC/C(C)=C/CC[C@]1(C)CC[C@@H]([C@@H](C)C(=O)OC)OO1 (stereo not given in full) [MUQUBILIN B] | > 5 µM
50 | C=C1CCCC(C)(C)C1CC[C@]1(C)CC[C@@H]([C@@H](C)C(=O)O)OO1 (stereo not given in full) [EPINUAPAPUIN B] | > 5 µM
